PMC4363092 (Journal of medicinal chemistry, 2014)
“Also recorded” adds a separate entry of the source.

Tests used:
[1] = system: human NTPDase1,2,3,8; test: Inhibition of NTPDase activity, text statements pooled over NTPDase1,2,3,8; type: biochemical; conditions: analogue 100 μM, pooled over four NTPDases
[2] = biological target: T1, human NPP1 (Homo sapiens, UniProt P22413); test: Inhibition of NPP1, pNP-TMP as substrate; type: biochemical; conditions: Dixon and Cornish–Bowden methods
T1 sequence (P22413 1-925): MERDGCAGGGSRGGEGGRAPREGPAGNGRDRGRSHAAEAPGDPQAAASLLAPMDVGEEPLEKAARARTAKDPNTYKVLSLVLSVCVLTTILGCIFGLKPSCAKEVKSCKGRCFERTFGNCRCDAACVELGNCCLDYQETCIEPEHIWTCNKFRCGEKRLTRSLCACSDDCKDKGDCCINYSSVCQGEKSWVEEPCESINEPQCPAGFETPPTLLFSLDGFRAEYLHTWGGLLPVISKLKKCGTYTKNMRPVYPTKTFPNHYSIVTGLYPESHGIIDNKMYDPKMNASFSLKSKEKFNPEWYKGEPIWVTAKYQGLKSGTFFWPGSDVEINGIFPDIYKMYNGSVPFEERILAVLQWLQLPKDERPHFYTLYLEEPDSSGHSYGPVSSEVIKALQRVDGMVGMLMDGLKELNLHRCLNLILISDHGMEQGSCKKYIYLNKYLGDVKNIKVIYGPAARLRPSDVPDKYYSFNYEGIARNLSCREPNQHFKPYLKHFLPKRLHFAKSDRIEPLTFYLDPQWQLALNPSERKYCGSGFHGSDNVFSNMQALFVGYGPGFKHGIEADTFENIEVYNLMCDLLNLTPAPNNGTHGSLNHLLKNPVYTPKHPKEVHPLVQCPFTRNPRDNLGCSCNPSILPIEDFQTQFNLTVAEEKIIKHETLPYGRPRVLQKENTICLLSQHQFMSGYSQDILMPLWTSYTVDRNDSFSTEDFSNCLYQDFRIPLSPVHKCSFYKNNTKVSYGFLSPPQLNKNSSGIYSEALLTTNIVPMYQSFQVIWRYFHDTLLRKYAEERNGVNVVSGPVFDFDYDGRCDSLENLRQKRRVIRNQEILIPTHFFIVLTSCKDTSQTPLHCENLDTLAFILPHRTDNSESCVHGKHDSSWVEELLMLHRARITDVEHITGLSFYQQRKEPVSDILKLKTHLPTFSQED

[3] = biological target: T2, P2Y11 receptor (Homo sapiens, UniProt Q96G91); test: [Ca2+]i elevation in 1321N1 astrocytoma cells expressing GFP-P2Y11 receptor; type: cell-based; conditions: 1321N1 cells; nr = no response up to 10 μM
T2 sequence (Q96G91 1-374): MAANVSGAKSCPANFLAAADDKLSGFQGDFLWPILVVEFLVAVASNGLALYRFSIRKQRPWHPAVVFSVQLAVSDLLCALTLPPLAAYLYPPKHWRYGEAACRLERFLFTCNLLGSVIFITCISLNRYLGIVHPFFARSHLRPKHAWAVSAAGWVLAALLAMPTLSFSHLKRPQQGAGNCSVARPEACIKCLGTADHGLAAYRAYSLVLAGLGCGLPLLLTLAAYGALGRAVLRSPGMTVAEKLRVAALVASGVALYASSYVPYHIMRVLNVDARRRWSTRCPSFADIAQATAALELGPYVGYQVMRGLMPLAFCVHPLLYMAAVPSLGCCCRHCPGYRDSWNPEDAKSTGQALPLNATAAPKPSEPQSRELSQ

[4] = biological target: T3, human NTPDase1 (Homo sapiens, UniProt P49961); conditions: analogue 100 μM as substrate; activity with 100 μM ATP set as 100%
T3 sequence (P49961 1-510): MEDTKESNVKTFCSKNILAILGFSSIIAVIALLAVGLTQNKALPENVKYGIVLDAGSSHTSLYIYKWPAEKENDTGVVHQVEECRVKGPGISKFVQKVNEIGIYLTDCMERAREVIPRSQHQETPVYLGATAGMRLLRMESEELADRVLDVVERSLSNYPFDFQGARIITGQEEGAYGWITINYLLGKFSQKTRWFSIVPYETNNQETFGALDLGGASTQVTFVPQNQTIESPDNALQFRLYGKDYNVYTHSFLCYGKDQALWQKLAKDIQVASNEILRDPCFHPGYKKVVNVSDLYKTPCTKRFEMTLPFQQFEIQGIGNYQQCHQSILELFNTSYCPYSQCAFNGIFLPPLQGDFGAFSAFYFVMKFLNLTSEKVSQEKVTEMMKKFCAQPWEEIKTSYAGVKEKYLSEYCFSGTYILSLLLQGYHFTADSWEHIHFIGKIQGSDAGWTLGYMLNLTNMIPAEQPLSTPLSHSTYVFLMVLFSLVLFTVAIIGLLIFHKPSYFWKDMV

[5] = biological target: T4, human NTPDase8 (Homo sapiens, UniProt Q5MY95); conditions: analogue 100 μM as substrate; activity with 100 μM ATP set as 100%
T4 sequence (Q5MY95 1-495): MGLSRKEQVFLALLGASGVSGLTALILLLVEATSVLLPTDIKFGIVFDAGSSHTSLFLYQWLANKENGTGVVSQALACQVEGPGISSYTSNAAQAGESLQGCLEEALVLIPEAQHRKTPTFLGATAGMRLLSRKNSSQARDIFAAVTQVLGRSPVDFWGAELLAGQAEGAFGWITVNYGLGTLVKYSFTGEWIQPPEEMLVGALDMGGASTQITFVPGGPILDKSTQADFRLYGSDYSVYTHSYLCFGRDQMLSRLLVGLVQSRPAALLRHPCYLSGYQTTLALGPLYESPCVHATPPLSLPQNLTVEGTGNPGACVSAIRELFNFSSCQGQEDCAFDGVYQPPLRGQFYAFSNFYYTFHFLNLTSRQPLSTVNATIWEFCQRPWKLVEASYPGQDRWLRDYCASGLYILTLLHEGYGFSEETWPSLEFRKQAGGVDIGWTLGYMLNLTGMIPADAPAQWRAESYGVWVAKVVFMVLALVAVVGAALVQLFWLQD

[6] = biological target: T3, human NTPDase1; test: Inhibition of NTPDase1 activity; type: biochemical; conditions: analogue 100 μM, substrate ATP 100 μM

Row | Structure (SMILES) | inhibition of ATP hydrolysis by NTPDase1,2,3,8 [1] | type of inhibition [2] | EC50 ± SEM (μM), [Ca^2+]i elevation, P2Y11 [3] | relative activity (%) ± SD of ATP hydrolysis, NTPDase1 [4] [%] | relative activity (%) ± SD of ATP hydrolysis, NTPDase8 [5] [%] | inhibition (%) ± SD, human NTPDase1 [6] [%]
1 | Nc1ncnc2c1ncn2[C@@H]1O[C@H](CO[P@](O)(=S)OP(=O)(O)C(Cl)(Cl)P(=O)(O)O)[C@@H](O)[C@H]1O [2a] | did not interfere | mixed-type inhibition, predominantly competitive | not agonists; also recorded: inactive; also recorded: not active, nr ^c | 5.3 ± 0.2 | 4.3 ± 0.1 | 
2 | Nc1ncnc2c1ncn2[C@@H]1O[C@H](COP(=O)(O)CP(=O)(O)OP(O)(O)=S)[C@@H](O)[C@H]1O [compound 3] |  | mixed-type inhibition, predominantly competitive |  | 5.3 ± 0.2 | 5.2 ± 0.2 | 60
